Earlier results as cited in publication PMC10975502 (Methods in molecular biology (Clifton, N.J.), 2022).

Conditions: result in words

Q: Which “activity in cytosolic delivery” value does the source give for cyclo(FfΦRrRrQ) [CPP12] here?
A: high activity
